Legend:
Assay type in all cases: cell-based, human
[1] = tested on: fibroblasts from individuals without known thyroid disease; assay: T lymphocyte migration (chemotaxis) assay of conditioned medium from treated fibroblasts, normal donors; conditions: IgG 100 ng/ml, IL-1β 10 ng/ml, 24 hours
Procedure: (§1) The general migration assay is described in detail in Sciaky, D., et al., “Cultured human fibroblasts express constitutive IL-16 mRNA: Cytokine induction of active IL-16 protein synthesis through a caspase-3-dependent mechanism,” J. Immunol. 164(7):3806-14 (2000), hereby incorporated fully by reference. Briefly, fibroblasts from TAO and normal orbital tissue were seeded in 24-well arrays and grown to confluence. Monolayers were shifted containing 1% FBS to which nothing, purified normal or TAO IgG was added for various time intervals. Medium was collected and stored until use at −80° C. Chemotaxis was examined using Boyden chambers to which NWNA-T lymphocytes were added as the cellular targets. 50 μl cell suspension (10^7 cells/ml) were placed in the upper compartments of 48-well micro-chemotaxis chambers separated from 32 μl of serum samples by 8 μm micropore nitrocellulose filters (Neuroprobe). These were incubated at 37° C. in 5% CO2 environment for 3 hr. Filters were fixed, stained with hematoxylin, dehydrated, mounted on glass slides and viewed by light microscopy. Lymphocyte migration was quantified by counting the total number of cells migrating beyond a fixed depth. This depth was set to routinely identify a baseline migration under control conditions of 10-15 cells per high power field. Five such fields were counted in duplicate for each sample and the means±SD were calculated and expressed as percentage values of baseline cell migration in control buffer alone (100%). For each set of experimental conditions, at least three separate determinations were performed. Differences between experimental groups were analyzed by the Student t test using absolute values obtained for lymphocyte migration and statistical difference was accepted at the 95% level of confidence.
(§2) To assess specificity for IL-16, experiments were conducted by incubating samples of culture media for 15 min with neutralizing concentrations of anti-IL-16 MAB (clone 14. 1, 10 μg/ml), which blocks the chemotactic activity of 50 ng/ml of rIL-16. Anti-RANTES MAB (5 μg/ml) having an ND50 of 200 ng/ml rRANTES was used to neutralize RANTES as described in Sciaky D., Brazer, W., Center, D. M., Cruikshank, W. W. and Smith, T. J.: Cultured human fibroblasts express constitutive IL-16 mRNA: Cytokine induction of active IL-16 protein synthesis through a caspase-3-dependent mechanism. J. Immunol. 164(7):3806-14, 2000).
(§3) Referring to FIGS. 3A-3C, serum concentrations of IL-16 are elevated in patients with active TAO. Moreover, both IL-16 and PGHS-2 protein can be detected in TAO orbital tissue. The concentration of IL-16 is determined in sera from either patients with Graves' disease or normal controls. The sera are subjected to an ELISA assay, which utilizes an anti-IL-16 specific antibody. IL-16 is detected by standard immunohistochemical techniques in thin sections harvested from affected orbital connective tissues from a patient with severe Graves' ophthalmopathy. In a separate measurement of IL-16 dependent T-cell migration, a panel of 11 different fibroblast strains from patients with Graves' disease and 5 from individuals without known thyroid disease were challenged with Graves' IgG (100 ng/ml), normal IgG (100 ng/ml) or IL-1β (10 ng/ml) for 24 hours and assessed for T cell migration activity and IL-16 production (Table II). Graves' IgG induced IL-16 dependent cell migration in 10 of the Graves' fibroblast strains which derived from orbit and skin from various anatomic regions. Included were strains from the pretibial skin as well as the abdominal wall and the neck. The latter two sites rarely manifest Graves' disease. A substantial fraction of Graves' IgG provoked T cell migration activity in most of these strains was resistant to neutralization with anti-IL-16. Similarly, chemoattractants produced by RA fibroblasts can be measured by T-cell migration. […]

[2] = tested on: dermal fibroblast strains; assay: Glycosaminoglycan (hyaluronan) synthesis in dermal fibroblasts; conditions: dermal fibroblast strains from the same donors
Source text: Applicants have also recently made a number of directly relevant observations of the disordered accumulation of hyaluronan in TAO. Orbital fibroblasts synthesize less hyaluronan constitutively than do dermal fibroblasts (Smith, T. J., Bahn, R. S. and Gorman, C. A.: Hormonal regulation of hyaluronate synthesis in cultured human fibroblasts: evidence for differences between retroocular and dermal fibroblasts. J. Clin. Endocrinol. Metab. 69:1019-1023, 1989). However, interferon-γ can modestly upregulate hyaluronan synthesis in orbital but not dermal fibroblasts (Smith, T. J., Bahn, R. S., Gorman, C. A. and Cheavens, M.: Stimulation of glycosaminoglycan accumulation by interferon gamma in cultured human retroocular fibroblasts. J. Clin. Endocrinol. Metab. 72:1169-1171, 1991). […] The macromolecular material was sensitive to Streptomyces hyaluronidase digestion, defining it as hyaluronan (Smith, T. J., Wang, H.-S. and Evans, C. H.: Leukoregulin is a potent inducer of hyaluronan synthesis in cultured orbital fibroblasts. Am. J. Physiol. 268:C382-C388, 1995, appended). The increase was substantially greater in magnitude than that observed in dermal fibroblast strains from the same donors (3-fold) and on the basis of pulse-chase studies could be attributed to changes in net synthesis.

[3] = tested on: fibroblasts from patients with GD; assay: T lymphocyte migration (chemotaxis) assay of conditioned medium from treated fibroblasts, GD donors; conditions: IgG 100 ng/ml, IL-1β 10 ng/ml, 24 hours
Procedure: as §1, §2, §3

Substance: IL-1β: pro-inflammatory cytokine used to activate fibroblasts
- T Cell Migration (% control) ([1]; strain 12, Orbit): 168 +/− 11 % control
- T Cell Migration +anti-IL-16 ([1]; strain 12, Orbit): 143 +/− 9 % control
- T Cell Migration +anti-RANTES ([1]; strain 12, Orbit): 156 +/− 9 % control
- T Cell Migration (% control) ([1]; strain 14, Orbit): 189 +/− 10 % control
- T Cell Migration +anti-IL-16 ([1]; strain 14, Orbit): 154 +/− 8 % control
- T Cell Migration +anti-RANTES ([1]; strain 14, Orbit): 159 +/− 9 % control
- T Cell Migration (% control) ([1]; strain 15, Extremity Skin): 197 ± 10 % control
- T Cell Migration +anti-IL-16 ([1]; strain 15, Extremity Skin): 153 ± 9 % control
- T Cell Migration +anti-RANTES ([1]; strain 15, Extremity Skin): 172 ± 9 % control
- T Cell Migration (% control) ([1]; strain 16, Extremity Skin): 201 ± 7 % control
- T Cell Migration +anti-IL-16 ([1]; strain 16, Extremity Skin): 155 ± 8 % control
- T Cell Migration +anti-RANTES ([1]; strain 16, Extremity Skin): 173 ± 7 % control
- up-regulation of glycosaminoglycan synthesis [2]: 3 fold
- T Cell Migration (% control) ([3]; strain 1, Orbit): 194 +/− 11 % control
- T Cell Migration +anti-IL-16 ([3]; strain 1, Orbit): 149 +/− 8 % control
- T Cell Migration +anti-RANTES ([3]; strain 1, Orbit): 167 +/− 10 % control
- T Cell Migration (% control) ([3]; strain 2, Orbit): 195 ± 13 % control
- T Cell Migration +anti-IL-16 ([3]; strain 2, Orbit): 171 ± 7 % control
- T Cell Migration +anti-RANTES ([3]; strain 2, Orbit): 170 ± 8 % control
- T Cell Migration (% control) ([3]; strain 3, Abdominal skin): 195 +/− 13 % control
- T Cell Migration +anti-IL-16 ([3]; strain 3, Abdominal skin): 171 +/− 7 % control
- T Cell Migration +anti-RANTES ([3]; strain 3, Abdominal skin): 171 +/− 8 % control
- T Cell Migration (% control) ([3]; strain 4, Orbit): 236 ± 19 % control
- T Cell Migration +anti-IL-16 ([3]; strain 4, Orbit): 175 ± 12 % control
- T Cell Migration +anti-RANTES ([3]; strain 4, Orbit): 188 ± 9 % control
- T Cell Migration (% control) ([3]; strain 5, Abdominal skin): 144 ± 8 % control
- T Cell Migration +anti-IL-16 ([3]; strain 5, Abdominal skin): 128 ± 8 % control
- T Cell Migration +anti-RANTES ([3]; strain 5, Abdominal skin): 131 ± 5 % control
- T Cell Migration (% control) ([3]; strain 6, Neck skin): 211 ± 13 % control
- T Cell Migration +anti-IL-16 ([3]; strain 6, Neck skin): 148 ± 10 % control
- T Cell Migration +anti-RANTES ([3]; strain 6, Neck skin): 178 ± 12 % control
- T Cell Migration (% control) ([3]; strain 7, Pretibial skin): 236 ± 19 % control
- T Cell Migration +anti-IL-16 ([3]; strain 7, Pretibial skin): 175 ± 12 % control
- T Cell Migration +anti-RANTES ([3]; strain 7, Pretibial skin): 188 ± 9 % control
- T Cell Migration (% control) ([3]; strain 8, Pretibial skin): 204 ± 14 % control
- T Cell Migration +anti-IL-16 ([3]; strain 8, Pretibial skin): 164 ± 10 % control
- T Cell Migration +anti-RANTES ([3]; strain 8, Pretibial skin): 173 ± 8 % control
- T Cell Migration (% control) ([3]; strain 9, Orbit): 243 +/− 13 % control
- T Cell Migration +anti-IL-16 ([3]; strain 9, Orbit): 167 +/− 11 % control
- T Cell Migration +anti-RANTES ([3]; strain 9, Orbit): 189 +/− 10 % control
- T Cell Migration (% control) ([3]; strain 10, Orbit): 248 +/− 19 % control
- T Cell Migration +anti-IL-16 ([3]; strain 10, Orbit): 189 +/− 14 % control
- T Cell Migration +anti-RANTES ([3]; strain 10, Orbit): 206 +/− 12 % control
- T Cell Migration (% control) ([3]; strain 11, Orbit): 210 +/− 13 % control
- T Cell Migration +anti-IL-16 ([3]; strain 11, Orbit): 162 +/− 11 % control
- T Cell Migration +anti-RANTES ([3]; strain 11, Orbit): 183 +/− 6 % control
